Measured values published in patent publication US20140335050A1, “METHODS, COMPOSITIONS, AND KITS FOR THE TREATMENT OF CANCER” (The General Hospital Corporation, priority 2011, published 2014).
Entries after “also recorded” stand apart in the source; their conditions may differ.

Columns and labels:
[1] = test system: B16 murine melanoma cell line; assay: Antibody staining and flow cytometry (intracellular gp100, TRP-2; surface Class I with H2kb antibody); format: cell-based, mouse; conditions: 3 days, 17-AEP 0.5, PU-H71 0.15, CCT018159 2.5 μg/ml
Source text: To further evaluate enhancement of immune recognition of cancer cells by inhibition of Hsp90 function, it was shown that a total of twelve different Hsp90 inhibitors were active in several molecular and cellular assays on a series of cell lines, including eleven human melanomas, the murine B16 melanoma, and two human gliomas. […] The melanomas all express varying levels of differentiation antigens Melan-A/MART-1, gp100 and TRP-2, as well as the MHC-Class I antigen (as evidenced by W6/32 antibody staining) that is required for T cell recognition of the tumor cells. Each of these antigens is enhanced by all of the Hsp90 inhibitors. […] Similar to the human counterparts, the B16 mouse tumor also can be induced to express enhanced antigen levels upon 3-day exposure to each of the Hsp90 inhibitors (Table 16). The mouse H-2 Class I antigen is likewise induced by the Hsp90 inhibitors.
General culture conditions for cell propagation and the origins of most of the melanoma cell lines have been previously described. Melanoma cells were cultured in DMEM with 10% FBS. The glioma cell lines U87 MG and U118 MG were obtained from the American Type Culture Collection (ATCC). The B16 murine melanoma cell line was provided by Dr. Andrew Hurwitz and has been previously described. The T cell receptor (TCR)-negative Jurkat T cell line derivative J.RT3-T3.5 was obtained from ATCC. The construction of the J.RT3-T3.5 cell line expressing a Melan-A/MART-1 specific TCR has been described previously. T cells were cultured in RPMI with 10% FBS. IFN-beta-1a (Avonex) was obtained from Biogen-Idec (Cambridge, Mass.) and reconstituted according to the manufacturer's recommendations. The Hsp90 inhibitor radicicol was purchased from A.G. Scientific (San Diego, Calif.). Novobiocin was ordered from BioMol (Plymouth Meeting, Pa.). 17-DMAG was obtained from LC laboratories (Woburn, Mass.). 17-AEP-AP was purchased from InVivoGen (San Diego, Calif.). […] Gedunin, CCT018159, and celastrol were purchased from Tocris (Ellisville, Mo.). Selleck Chemicals (Houston, Tex.) provided NVP-AUY922 and BIIB021.
Cells were plated at a density of 1×10^5 in 1 ml of medium in a 24-well plate and cultured for varying times as indicated in results. Typically, 3 days of culture in the presence of Hsp90 inhibitors was optimal for the functional studies performed. After incubation, cells were collected by trypsinization and then evaluated by flow cytometry.
(§1) Intracellular staining and flow cytometric analyses of cytoplasmic Melan-A/MART-1, and gp100 expression were performed as described previously. Cells were fixed with 1% formaldehyde, permeabilized with 0.1% saponin, stained with monoclonal antibodies to melanocyte antigens. Antibodies were obtained with specificity for: Melan-A/MART-1 from Vector Labs (Burlingame, Calif.); gp100/HMB45 from DakoCytomation (Carpinteria, Calif.) and then visualized with goat anti-mouse FITC-conjugated secondary antibody from Invitrogen (Frederick, Md.). The level of EGFP was determined by flow cytometry of unfixed cells washed and resuspended in 1×PBS. Surface staining of MHC Class I was carried out using the antibody W6/32 on cells harvested with Cell Stripper from MediaTech Inc. (Manassas, Va.) and carried out on ice.

[2] = test system: MU89 melanoma cell line; assay: Antibody staining and flow cytometry (intracellular Melan-A/MART-1, gp100, TRP-2; surface MHC Class I/II); format: cell-based, human
[3] = test system: U-118 MG glioma cell line; assay: Antibody staining and flow cytometry (intracellular gp100; surface MHC Class I/II); format: cell-based, human; conditions: for Class I MHC, geometric mean of surface staining (W6/32): U-118
[4] = test system: MALME-3M melanoma cell line; assay: Antibody staining and flow cytometry (intracellular Melan-A/MART-1, gp100, TRP-2; surface MHC Class I); format: cell-based, human
Procedure: Cells were fixed with 1% formaldehyde, permeabilized with 0.1% saponin, stained with monoclonal antibodies to melanocyte antigens. Antibodies were obtained with specificity for: MART-1 from Vector Labs (Burlingame, Calif.); gp100 HMB45 from DakoCytomation (Carpinteria, Calif.) and then visualized with goat anti-mouse FITC-conjugated secondary antibody from Invitrogen (Fredrick, Md.). The level of EGFP was determined by flow cytometry of unfixed cells that were washed and resuspended in 1×PBS.
Cells were plated at a density of 1×10^5 in 1 ml of medium in a 24-well plate and cultured for varying times as indicated in results. […] After incubation, cells were collected by trypsinization and then evaluated by flow cytometry.
as §1

[5] = MU89, 3 days, IFN-beta 5000 Units/ml, 17-AEP 1.0, PU-H71 0.3, CCT018159 10.0 μg/ml
[6] = MU89, three days, IFN-β 5000 Units/ml, IFN-γ 100 ng/ml, PU-H71 0.3 mg/ml
[7] = MU89 cells, Table 20, single agent or simultaneous combination
[8] = U118 cells, Table 20, single agent or simultaneous combination
[9] = MALME-3M, 3 days, IFN-beta 5000 Units/ml, 17-AEP 1.0, PU-H71 0.3, CCT018159 10.0 μg/ml

CC(C)NCCCn1c(Sc2cc3c(cc2I)OCO3)nc2c(N)ncnc21 [PU-H71]
Class I, geometric mean of surface staining (H2kb) [1]: 14
TRP-2, geometric mean of intracellular staining [1]: 360
gp100, geometric mean of intracellular staining [1]: 595
Class I, geometric mean of surface staining (W6/32) [2, 5]: 66
MART-1, geometric mean of intracellular staining [2, 5]: 147
TRP-2, geometric mean of intracellular staining [2, 5]: 214
gp100, geometric mean of intracellular staining [2, 5]: 381
MHC Class I, geometric mean of surface staining (W6/32) ([2]; MU89, 4 day IFN-β pre-treatment (5000 Units/ml), then 3 days with fresh IFN-β and the labelled HSP90 inhibitor (label IFN-β: no inhibitor), 17-AEP 1, PU-H71 0.3, CCT018159 10 mg/ml): 390
MHC Class I, geometric mean of surface staining (W6/32) ([2]; MU89, 4 day IFN-β pre-treatment (5000 Units/ml), then 3 days without IFN-β with the labelled HSP90 inhibitor (label IFN-β: no inhibitor), 17-AEP 1, PU-H71 0.3, CCT018159 10 mg/ml): 307
Class I antigen induction, sequential treatment ([2]; MU89, IFN-beta pre-treatment, then PU-H71 for 3 days (FIG. 22)): synergistically enhanced; also recorded: far exceeded what was achieved with either drug alone
Class II antigen level, sequential treatment ([2]; MU89, IFN-gamma for 3 days, subsequently PU-H71 (FIG. 23)): significantly greater than that achieved with IFN-gamma alone
MHC Class I, geometric mean of surface staining (W6/32) ([2]; MU89, single agent for 3 days, no IFN-β pre-treatment, IFN-β 5000 Units/ml): 75
MHC Class I, geometric mean of surface staining (W6/32) ([2]; MU89, three days, IFN-β 5000 Units/ml): 66
MHC Class I, geometric mean of surface staining (W6/32) [2, 6]: 99
MHC Class II, geometric mean of surface staining (L2443) [2, 6]: 43
L243 (MHC Class II surface staining) [2, 7]: 4.1
W6/32 (MHC Class I surface staining) [2, 7]: 72.1
L243 (MHC Class II surface staining) ([2]; MU89 cells, Table 21, no pre-treatment, treatment as labelled): 5
L243 (MHC Class II surface staining) ([2]; MU89 cells, Table 21, pre-treatment IFN-G (3 days), then treatment as labelled): 338
L243 (MHC Class II surface staining) ([2]; MU89 cells, Table 21, substance given as pre-treatment (3 days) only, no subsequent treatment): 2
Class II induction by IFN-gamma, combination ([2]; MU-89, Hsp90 inhibitor together with IFN-gamma): ablation of the IFN-gamma induction of Class II antigen
Class I expression, combination ([2]; MU-89, PU-H71 together with IFN-beta): additive effect
Class I induction by IFN-gamma, combination ([2]; MU-89, PU-H71 together with IFN-gamma): not further enhanced
L243 (MHC Class II surface staining) ([2]; MU-89, single agent): 4.5
MHC Class II, geometric mean of surface staining (L2443) ([3]; Giloma-118, three days, IFN-β 5000 Units/ml, IFN-γ 100 ng/ml, PU-H71 0.3 mg/ml): 4
MHC Class I, geometric mean of surface staining (W6/32) ([3]; Giloma-118, three days, IFN-β 5000 Units/ml, IFN-γ 100 ng/ml, PU-H71 0.3): 88
Class II induction, combination ([3]; U118, co-treatment with IFN-gamma and PU-H71): prevented
L243 (MHC Class II surface staining) ([3]; U118, single agent): 4.1
L243 (MHC Class II surface staining) [3, 8]: 6.3
W6/32 (MHC Class I surface staining) [3, 8]: 135.7
Class I MHC, geometric mean of surface staining (W6/32) ([3]; 4 day IFN-β pre-treatment (5000 Units/ml), then 3 days with fresh IFN-β, with PU-H71 0.3 where labelled (label IFN-β: no inhibitor)): 184
Class I MHC, geometric mean of surface staining (W6/32) ([3]; 4 day IFN-β pre-treatment (5000 Units/ml), then 3 days without IFN-β, with PU-H71 0.3 where labelled (label IFN-β: no inhibitor)): 224
Class I MHC, geometric mean of surface staining (W6/32) ([3]; single agent for 3 days, no IFN-β pre-treatment, IFN-β 5000 Units/ml, PU-H71 0.3): 138
gp100, geometric mean of intracellular staining ([3]; U-118 MG, 3 days, IFN-beta 5000 Units/ml, 17-AEP 1.0, PU-H71 0.3, CCT018159 10.0 μg/ml): 63
MHC Class I, geometric mean of surface staining (W6/32) ([3]; U-118 glioma, three days, IFN-β 5000 Units/ml, PU-H71 0.075-0.3): 88
Class I, geometric mean of surface staining (W6/32) [4, 9]: 137
MART-1, geometric mean of intracellular staining [4, 9]: 226
TRP-2, geometric mean of intracellular staining [4, 9]: 279
gp100, geometric mean of intracellular staining [4, 9]: 511
MHC Class I, geometric mean of surface staining (W6/32) ([4]; MALME, three days, IFN-β 5000 Units/ml): 137
